Experimental data reported in ChEMBL document CHEMBL1201862, “PubChem BioAssay data set” (2004).
Calls of active or inactive are those of the source.

How the values were obtained:
Cytochrome P450 1A2 = molecular target: T1, Cytochrome P450 1A2 (Homo sapiens, UniProt P05177);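 further: PubChem cytochrome P450 panel assay, CYP1A2 panel member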
T1 sequence (P05177 whole entry): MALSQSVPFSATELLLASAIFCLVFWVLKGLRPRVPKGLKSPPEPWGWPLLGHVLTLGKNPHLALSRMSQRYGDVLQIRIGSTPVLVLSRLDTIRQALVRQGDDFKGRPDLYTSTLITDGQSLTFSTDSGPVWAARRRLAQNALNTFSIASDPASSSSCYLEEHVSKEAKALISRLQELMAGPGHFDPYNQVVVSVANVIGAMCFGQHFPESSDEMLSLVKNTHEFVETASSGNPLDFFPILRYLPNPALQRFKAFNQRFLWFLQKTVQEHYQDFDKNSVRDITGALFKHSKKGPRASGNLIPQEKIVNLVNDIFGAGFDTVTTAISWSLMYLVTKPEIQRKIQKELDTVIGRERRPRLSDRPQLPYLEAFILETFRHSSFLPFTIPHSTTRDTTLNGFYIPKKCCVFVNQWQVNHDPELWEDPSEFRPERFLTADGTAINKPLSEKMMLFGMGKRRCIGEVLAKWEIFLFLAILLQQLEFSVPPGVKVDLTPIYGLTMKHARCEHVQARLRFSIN

Cytochrome P450 2D6 = Cytochrome P450 2D6 (Homo sapiens, UniProt P10635);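 further: CYP2D6 member of a cytochrome P450 panel assay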
Cytochrome P450 2D6, sequence (P10635 whole entry): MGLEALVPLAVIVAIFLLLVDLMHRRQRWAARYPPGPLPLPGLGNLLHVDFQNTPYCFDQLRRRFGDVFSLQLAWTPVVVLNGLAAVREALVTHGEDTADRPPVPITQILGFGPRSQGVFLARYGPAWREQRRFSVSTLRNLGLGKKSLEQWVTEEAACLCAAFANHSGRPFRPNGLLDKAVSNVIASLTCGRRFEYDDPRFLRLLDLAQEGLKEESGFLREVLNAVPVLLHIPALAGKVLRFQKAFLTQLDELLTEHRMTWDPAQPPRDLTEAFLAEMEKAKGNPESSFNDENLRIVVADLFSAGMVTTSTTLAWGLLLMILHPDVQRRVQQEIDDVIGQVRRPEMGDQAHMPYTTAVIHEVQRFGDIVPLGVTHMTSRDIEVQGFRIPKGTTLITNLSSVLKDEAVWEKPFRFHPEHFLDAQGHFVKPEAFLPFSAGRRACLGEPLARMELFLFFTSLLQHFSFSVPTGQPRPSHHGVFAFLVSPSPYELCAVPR

fMet-Leu-Phe receptor = molecular target: T2, fMet-Leu-Phe receptor (Homo sapiens, UniProt P21462); experiment: FPR ligands, dose response (AID 519); type: functional
T2 sequence (P21462 whole entry): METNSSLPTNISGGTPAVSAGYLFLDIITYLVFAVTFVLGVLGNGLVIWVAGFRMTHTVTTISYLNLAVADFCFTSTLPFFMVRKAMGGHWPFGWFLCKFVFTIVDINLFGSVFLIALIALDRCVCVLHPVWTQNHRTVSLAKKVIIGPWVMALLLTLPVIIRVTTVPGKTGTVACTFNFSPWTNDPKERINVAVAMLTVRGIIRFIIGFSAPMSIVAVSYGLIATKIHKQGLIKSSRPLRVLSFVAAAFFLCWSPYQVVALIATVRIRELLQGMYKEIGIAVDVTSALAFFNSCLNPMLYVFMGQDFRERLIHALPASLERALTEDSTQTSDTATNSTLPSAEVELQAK

[1] = molecular target: T3, G-protein coupled receptor 55 (Homo sapiens, UniProt Q9Y2T6); experiment: GPR55 agonists via beta-arrestin recruitment, primary screen, imaging, U2OS cells, beta-arrestin-GFP redistribution (AID 1961); type: functional
T3 sequence (Q9Y2T6 whole entry): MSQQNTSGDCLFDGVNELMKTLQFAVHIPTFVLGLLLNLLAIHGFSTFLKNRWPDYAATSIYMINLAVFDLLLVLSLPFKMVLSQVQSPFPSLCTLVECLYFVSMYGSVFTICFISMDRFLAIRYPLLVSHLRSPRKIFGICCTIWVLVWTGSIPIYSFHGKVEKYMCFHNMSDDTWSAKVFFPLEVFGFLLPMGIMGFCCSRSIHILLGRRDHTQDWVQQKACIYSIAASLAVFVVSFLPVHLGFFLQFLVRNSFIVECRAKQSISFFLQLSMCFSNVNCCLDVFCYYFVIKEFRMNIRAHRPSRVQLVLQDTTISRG

CAAX prenyl protease 2 = molecular target: T4, CAAX prenyl protease 2 (Saccharomyces cerevisiae S288c, UniProt Q03530); type: biochemical
T4 sequence (Q03530 whole entry): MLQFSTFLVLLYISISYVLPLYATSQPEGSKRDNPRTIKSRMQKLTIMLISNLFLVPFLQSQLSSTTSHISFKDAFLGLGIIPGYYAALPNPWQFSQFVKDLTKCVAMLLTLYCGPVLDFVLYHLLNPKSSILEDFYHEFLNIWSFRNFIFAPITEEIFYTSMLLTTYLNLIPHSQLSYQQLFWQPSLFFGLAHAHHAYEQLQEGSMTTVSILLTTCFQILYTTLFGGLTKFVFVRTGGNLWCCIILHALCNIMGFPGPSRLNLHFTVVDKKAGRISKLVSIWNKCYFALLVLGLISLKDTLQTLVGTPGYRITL

[2] = molecular target: Voltage-dependent T-type calcium channel subunit alpha-1H (Homo sapiens, UniProt O95180); type: functional;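 further: channel activity triggered by adding a high calcium stimulation buffer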
Voltage-dependent T-type calcium channel subunit alpha-1H, sequence (O95180 whole entry): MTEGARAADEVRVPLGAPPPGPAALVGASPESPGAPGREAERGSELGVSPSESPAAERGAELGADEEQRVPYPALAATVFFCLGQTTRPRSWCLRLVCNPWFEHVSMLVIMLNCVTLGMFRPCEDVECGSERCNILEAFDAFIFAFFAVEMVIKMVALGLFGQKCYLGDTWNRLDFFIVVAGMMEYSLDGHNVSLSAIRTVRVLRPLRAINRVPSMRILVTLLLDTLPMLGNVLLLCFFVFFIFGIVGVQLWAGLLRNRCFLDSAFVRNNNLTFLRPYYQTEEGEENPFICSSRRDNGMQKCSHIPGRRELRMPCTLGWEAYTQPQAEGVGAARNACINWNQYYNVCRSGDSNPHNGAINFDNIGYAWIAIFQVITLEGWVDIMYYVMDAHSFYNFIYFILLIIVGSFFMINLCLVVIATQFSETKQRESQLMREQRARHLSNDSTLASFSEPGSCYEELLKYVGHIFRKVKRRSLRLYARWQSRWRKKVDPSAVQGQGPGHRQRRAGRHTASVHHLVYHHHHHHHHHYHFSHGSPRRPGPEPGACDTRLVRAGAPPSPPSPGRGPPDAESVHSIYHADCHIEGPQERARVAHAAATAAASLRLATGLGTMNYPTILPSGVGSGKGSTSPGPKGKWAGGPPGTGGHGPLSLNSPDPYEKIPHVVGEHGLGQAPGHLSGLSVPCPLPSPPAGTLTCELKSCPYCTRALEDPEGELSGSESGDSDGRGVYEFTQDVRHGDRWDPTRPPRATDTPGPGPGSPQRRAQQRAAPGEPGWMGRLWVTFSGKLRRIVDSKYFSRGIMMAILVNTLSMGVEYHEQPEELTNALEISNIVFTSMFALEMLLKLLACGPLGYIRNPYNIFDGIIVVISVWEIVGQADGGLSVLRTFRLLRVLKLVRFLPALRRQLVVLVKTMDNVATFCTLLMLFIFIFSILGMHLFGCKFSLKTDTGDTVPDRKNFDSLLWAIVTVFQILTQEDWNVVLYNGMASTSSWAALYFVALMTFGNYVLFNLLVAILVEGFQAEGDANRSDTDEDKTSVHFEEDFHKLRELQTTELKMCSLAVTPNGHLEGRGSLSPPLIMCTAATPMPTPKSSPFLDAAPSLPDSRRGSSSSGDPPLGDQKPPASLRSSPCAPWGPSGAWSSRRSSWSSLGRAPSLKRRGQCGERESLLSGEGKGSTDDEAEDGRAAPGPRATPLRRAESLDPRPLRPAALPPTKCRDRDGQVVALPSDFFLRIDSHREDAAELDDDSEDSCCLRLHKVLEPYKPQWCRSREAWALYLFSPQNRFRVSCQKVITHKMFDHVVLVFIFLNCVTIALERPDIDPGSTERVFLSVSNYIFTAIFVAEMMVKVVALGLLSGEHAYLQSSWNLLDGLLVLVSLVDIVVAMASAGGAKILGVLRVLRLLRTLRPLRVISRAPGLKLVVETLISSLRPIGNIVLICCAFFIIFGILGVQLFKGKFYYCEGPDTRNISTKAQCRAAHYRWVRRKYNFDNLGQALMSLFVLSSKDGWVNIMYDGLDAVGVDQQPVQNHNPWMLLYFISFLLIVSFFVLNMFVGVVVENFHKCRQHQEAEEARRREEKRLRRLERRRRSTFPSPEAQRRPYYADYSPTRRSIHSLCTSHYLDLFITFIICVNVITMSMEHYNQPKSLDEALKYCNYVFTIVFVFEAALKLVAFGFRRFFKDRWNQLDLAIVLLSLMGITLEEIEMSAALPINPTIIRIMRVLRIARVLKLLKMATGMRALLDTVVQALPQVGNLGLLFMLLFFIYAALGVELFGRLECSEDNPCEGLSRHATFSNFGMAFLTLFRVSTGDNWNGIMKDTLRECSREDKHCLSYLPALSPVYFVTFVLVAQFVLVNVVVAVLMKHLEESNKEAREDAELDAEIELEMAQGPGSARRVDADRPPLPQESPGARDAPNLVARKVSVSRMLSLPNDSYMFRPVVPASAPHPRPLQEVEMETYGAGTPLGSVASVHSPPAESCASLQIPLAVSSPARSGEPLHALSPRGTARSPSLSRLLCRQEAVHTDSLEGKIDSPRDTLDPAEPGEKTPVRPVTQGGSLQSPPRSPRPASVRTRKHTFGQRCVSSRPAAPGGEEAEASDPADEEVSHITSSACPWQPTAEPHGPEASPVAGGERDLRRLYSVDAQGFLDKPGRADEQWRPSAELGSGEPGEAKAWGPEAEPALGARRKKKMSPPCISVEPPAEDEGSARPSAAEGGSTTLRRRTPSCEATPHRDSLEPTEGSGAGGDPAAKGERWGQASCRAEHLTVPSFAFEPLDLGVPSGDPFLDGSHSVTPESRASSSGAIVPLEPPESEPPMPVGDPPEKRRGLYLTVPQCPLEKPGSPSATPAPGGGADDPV

[3] = molecular target: T3, G-protein coupled receptor 55; experiment: GPR55 antagonists blocking LPI-driven arrestin recruitment, primary screen, imaging, U2OS, beta-arrestin-GFP, LPI agonist (AID 2013); type: functional;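 further: antagonist potency measured as reduced agonist-driven arrestin aggregation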
[4] = molecular target: T5, NACHT, LRR and PYD domains-containing protein 1 (Homo sapiens, UniProt Q9C000); experiment: NALP1 inhibitors in yeast, dose response, luminescent (AID 488860); type: functional
T5 sequence (Q9C000 whole entry): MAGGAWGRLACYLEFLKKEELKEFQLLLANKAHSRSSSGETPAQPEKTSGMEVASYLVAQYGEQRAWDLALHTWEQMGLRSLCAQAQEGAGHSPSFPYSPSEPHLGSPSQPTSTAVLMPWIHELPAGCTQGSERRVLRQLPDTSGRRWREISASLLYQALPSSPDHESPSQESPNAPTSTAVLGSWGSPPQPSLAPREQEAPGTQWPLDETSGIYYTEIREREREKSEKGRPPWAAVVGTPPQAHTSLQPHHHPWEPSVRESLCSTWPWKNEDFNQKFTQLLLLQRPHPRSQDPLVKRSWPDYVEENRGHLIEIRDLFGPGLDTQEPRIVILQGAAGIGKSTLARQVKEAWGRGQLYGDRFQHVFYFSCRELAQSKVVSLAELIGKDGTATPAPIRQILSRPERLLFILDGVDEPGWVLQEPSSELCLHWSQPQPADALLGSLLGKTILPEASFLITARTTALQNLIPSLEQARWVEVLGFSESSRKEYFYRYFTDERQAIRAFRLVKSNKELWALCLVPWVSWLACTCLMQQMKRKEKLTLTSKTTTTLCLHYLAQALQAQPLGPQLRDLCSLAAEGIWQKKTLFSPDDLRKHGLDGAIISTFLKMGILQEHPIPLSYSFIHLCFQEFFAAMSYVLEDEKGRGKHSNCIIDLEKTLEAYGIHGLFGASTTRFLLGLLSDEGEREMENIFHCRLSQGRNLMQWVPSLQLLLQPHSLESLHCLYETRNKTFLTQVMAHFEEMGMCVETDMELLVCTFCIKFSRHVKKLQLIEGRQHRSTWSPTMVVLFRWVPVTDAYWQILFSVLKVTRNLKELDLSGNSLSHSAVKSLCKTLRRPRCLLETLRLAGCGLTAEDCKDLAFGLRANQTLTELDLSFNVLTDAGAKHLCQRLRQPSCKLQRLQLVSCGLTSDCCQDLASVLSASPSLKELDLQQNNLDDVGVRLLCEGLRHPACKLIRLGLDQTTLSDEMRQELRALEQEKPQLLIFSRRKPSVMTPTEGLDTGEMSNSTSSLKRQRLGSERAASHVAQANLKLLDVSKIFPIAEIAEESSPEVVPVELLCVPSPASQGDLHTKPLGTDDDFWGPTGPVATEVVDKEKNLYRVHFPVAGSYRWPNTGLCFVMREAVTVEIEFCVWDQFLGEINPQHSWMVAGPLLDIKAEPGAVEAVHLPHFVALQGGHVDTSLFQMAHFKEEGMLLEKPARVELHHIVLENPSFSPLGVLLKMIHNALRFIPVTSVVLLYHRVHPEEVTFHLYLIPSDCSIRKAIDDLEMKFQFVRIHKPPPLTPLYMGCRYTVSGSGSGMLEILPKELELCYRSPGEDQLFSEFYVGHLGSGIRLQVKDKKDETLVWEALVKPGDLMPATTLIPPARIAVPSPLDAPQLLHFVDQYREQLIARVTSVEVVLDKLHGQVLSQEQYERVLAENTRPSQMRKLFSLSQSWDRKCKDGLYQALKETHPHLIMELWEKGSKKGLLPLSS

Saccharomyces cerevisiae = experiment: NALP1 inhibitor project selectivity study, Caspase-1/ASC signal blockade IC50 in S. cerevisiae (AID 488863); type: functional, organism-based
[5] = inhibitors of intracellular T. cruzi replication, confirmation, NIH3T3 host cells, beta-gal luminescence (AID 2044); type: functional, cell-based;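 further: intracellular parasites grown in NIH/3T3 mouse fibroblasts as host cells; luminescent beta-galactosidase reporter signal from transgenic T. cruzi replicating inside host cells; inhibitors lower the luminescence signal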
[6] = cytotoxicity toward NIH3T3 fibroblasts, dose response, counter-screen, cell-based, ATP luminescence, mouse fibroblasts (AID 2010); type: functional;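 further: cells exposed to compound for about 90 hours before reading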
Beta-galactosidase = Beta-galactosidase (Escherichia coli, UniProt Q8VNN2); experiment: PubChem AID 485352; type: functional
Beta-galactosidase, sequence (Q8VNN2 whole entry): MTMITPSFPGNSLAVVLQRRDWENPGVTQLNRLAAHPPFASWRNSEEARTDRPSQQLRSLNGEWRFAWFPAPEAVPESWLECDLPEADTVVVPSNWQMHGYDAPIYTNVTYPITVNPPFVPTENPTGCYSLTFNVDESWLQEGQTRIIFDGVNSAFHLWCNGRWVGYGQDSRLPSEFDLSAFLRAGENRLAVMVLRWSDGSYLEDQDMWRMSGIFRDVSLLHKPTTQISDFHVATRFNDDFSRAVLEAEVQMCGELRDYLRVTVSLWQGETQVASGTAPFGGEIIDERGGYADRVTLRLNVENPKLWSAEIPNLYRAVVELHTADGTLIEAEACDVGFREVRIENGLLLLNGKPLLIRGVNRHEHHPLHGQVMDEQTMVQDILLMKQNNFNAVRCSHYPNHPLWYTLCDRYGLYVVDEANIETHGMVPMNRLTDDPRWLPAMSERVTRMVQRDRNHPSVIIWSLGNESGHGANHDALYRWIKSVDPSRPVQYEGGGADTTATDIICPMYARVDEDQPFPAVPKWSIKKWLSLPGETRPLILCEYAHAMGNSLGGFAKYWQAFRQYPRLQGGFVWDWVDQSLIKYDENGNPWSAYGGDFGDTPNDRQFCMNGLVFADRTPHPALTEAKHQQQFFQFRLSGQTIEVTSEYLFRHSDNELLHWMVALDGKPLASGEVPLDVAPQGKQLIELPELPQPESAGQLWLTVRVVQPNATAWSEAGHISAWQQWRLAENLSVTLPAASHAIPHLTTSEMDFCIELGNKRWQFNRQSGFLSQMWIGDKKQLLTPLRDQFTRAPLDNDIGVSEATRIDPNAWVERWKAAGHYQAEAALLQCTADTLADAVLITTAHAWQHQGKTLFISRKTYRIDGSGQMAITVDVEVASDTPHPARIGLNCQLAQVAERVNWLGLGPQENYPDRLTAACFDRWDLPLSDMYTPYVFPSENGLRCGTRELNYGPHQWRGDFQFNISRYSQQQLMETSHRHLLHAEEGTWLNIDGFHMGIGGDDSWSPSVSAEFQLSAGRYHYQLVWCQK

[7] = molecular target: T6, Type-1 angiotensin II receptor (Homo sapiens, UniProt P30556); experiment: AT1 receptor antagonists, dose response, selectivity assay for APJ receptor antagonist project, cell-based, uHTS hits (AID 463214); type: functional;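 further: antagonist potency against angiotensin II stimulated AT1 response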
T6 sequence (P30556 whole entry): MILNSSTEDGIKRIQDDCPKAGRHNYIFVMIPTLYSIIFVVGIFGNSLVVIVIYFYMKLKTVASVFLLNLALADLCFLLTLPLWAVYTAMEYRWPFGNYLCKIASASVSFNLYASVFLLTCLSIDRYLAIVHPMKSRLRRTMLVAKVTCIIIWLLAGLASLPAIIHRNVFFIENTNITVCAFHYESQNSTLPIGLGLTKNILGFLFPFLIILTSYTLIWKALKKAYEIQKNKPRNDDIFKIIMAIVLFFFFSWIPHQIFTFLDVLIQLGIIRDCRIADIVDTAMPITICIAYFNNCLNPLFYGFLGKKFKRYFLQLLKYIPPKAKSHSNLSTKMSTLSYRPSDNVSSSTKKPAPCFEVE

BJ [8] = experiment: cells; type: functional, cell-based; conditions: Homo sapiens
Vero [9] = experiment: cells; type: functional; conditions: Chlorocebus sabaeus
[10] = Luminescence Cell-Based Dose Response HTS to Identify Inhibitors of 5'UTR Stem-Loop Driven Prion Protein mRNA Translation in H4 Neuroglioblastoma Cells. [Related pubchem assays: 1827 (Project Summary), 1813 (Primary HTS)]; type: functional
[11] = inhibitors of firefly luciferase expression or activity, dose response, H4 neuroglioma cells, luminescence (AID 1990); type: functional, cell-based
BJ [12] = experiment: cytotoxicity toward BJ-TERT-LT-ST fibroblasts, dose response, cell-based, RAS-independent, luminescence (AID 1935); type: functional; conditions: Homo sapiens;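 further: BJ fibroblasts immortalized with TERT plus LT and ST oncogenes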
[13] = inhibitors of SNCA 5'UTR-driven reporter translation, confirmation, H4 neuroglioma cells, luminescence (AID 1988); type: functional, cell-based
[14] = cytotoxicity toward DRD oncogenic fibroblasts, dose response, cell-based, non-viral oncogenic, luminescence (AID 1934); type: functional; conditions: Homo sapiens
BJ [15] = experiment: cytotoxicity toward BJ-TERT fibroblasts, dose response, cell-based, RAS-independent, luminescence (AID 1933); type: functional; conditions: Homo sapiens
Vero [16] = experiment: cells; type: functional, cell-based; conditions: Chlorocebus sabaeus
[17] = molecular target: Glyceraldehyde-3-phosphate dehydrogenase (Homo sapiens, UniProt P04406)
Glyceraldehyde-3-phosphate dehydrogenase, sequence (P04406 whole entry): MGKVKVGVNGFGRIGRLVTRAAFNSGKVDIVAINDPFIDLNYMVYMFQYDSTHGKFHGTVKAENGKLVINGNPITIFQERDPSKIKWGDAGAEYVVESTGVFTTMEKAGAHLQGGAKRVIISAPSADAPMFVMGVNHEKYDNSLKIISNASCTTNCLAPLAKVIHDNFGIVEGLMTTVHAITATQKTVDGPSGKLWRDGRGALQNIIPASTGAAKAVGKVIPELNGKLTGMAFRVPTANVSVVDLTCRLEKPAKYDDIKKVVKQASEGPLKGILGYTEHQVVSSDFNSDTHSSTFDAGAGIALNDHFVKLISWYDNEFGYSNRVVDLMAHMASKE

Cc1nn2c(O)c3c(nc2c1-c1cccc2ccccc12)CCC3
AC50 (Cytochrome P450 1A2): 25.1 µM (inconclusive) | AC50 (Cytochrome P450 2D6): 35.5 µM (inconclusive) | Ki (fMet-Leu-Phe receptor): 53.7 µM (inactive) | EC50 [1]: 8.52 µM (active)

COc1ccccc1NC(=O)Cc1nnc(SCC(=O)Nc2nccs2)n1C
AC50 (CAAX prenyl protease 2): 21.1 µM (active)

CCCn1c(NCc2cc(OC)ccc2OC)nc2ccccc21
EC50 [2]: 5.97 µM (active)

Cc1ccc(C(=O)N(c2ccccc2)C2CC(C)N(C(=O)c3ccco3)c3ccccc32)cc1 (centres undefined)
IC50 [3]: 2.41 µM (active)

CCc1ccc(C(=O)NCc2ccc(Cl)cc2Cl)cc1
IC50 [4]: 33.9 µM (active) | IC50 (Saccharomyces cerevisiae): 61 µM (active)

Cc1ccc(C(=O)/C=C\C(=O)c2ccc(C)cc2)cc1
IC50 [4]: 8.75 µM (active) | EC50 [5]: 1.97 µM (active) | IC50 (Saccharomyces cerevisiae): 6.51 µM (active) | EC50 [6]: > 60 µM (not active)

Cn1cccc1Cc1nnc(SCC(=O)Nc2cccc(Cl)c2)n1-c1ccc(F)cc1
EC50 [2]: 1.24 µM (active)

Cc1ccc(-c2c(C(=O)N/N=C/c3cccc(Cl)c3)nnn2-c2nonc2N)cc1
EC50 (Beta-galactosidase): > 40 µM (inactive) | AC50 (CAAX prenyl protease 2): 1.44 µM (active) | IC50 [7]: > 40 µM (not active)

Cc1ccc(CNC(=O)C(=O)NCC2OCCN2S(=O)(=O)c2ccc3c(c2)OCCO3)cc1 (centres undefined)
EC50 [2]: 4.92 µM (active)

CC(=O)Nc1cccc(Oc2ncnc3scc(-c4ccc(C(C)C)cc4)c23)c1
EC50 (BJ [8]): 61.5 µM (active) | CC50 (Vero [9]): > 25 µM (active) | EC50 [10]: > 120 µM (not active) | EC50 [11]: 21.7 µM (active) | EC50 [1]: 6.01 µM (active) | EC50 (BJ [12]): > 150 µM (inconclusive) | EC50 [13]: 18.2 µM (active) | EC50 [14]: 31.3 µM (active) | EC50 (BJ [15]): 42.6 µM (active) | IC50 (Vero [16]): 17.7 µM (active)

O=C(O)c1cccc(N2C(=O)c3ccc4c5c(ccc(c35)C2=O)CC4)c1
IC50 [17]: > 100 µM (not active)
